Measurements as given in patent US5998442A, “Benzo [B] thiophene compounds, and compositions for treating bone loss, and hyperlipidemia” (Eli Lilly and Company, priority 1997, dated 1999).

What was measured:
[1] = system: Uterine Eosinophil Peroxidase (EPO); assay: Uterine Eosinophil Peroxidase (EPO) Assay in ovariectomized rats; assay type: in vivo, rat (female Sprague Dawley); design: Uterine EPO (Vmax): unit not given here
Source text: (§1) Seventy-five day old female Sprague Dawley rats (weight range of 200 to 225 g) were obtained from Charles River Laboratories (Portage, Mich.). The animals were either bilaterally ovariectomized (OVX) or exposed to a Sham surgical procedure at Charles River Laboratories, and then shipped after one week. Upon arrival, they were housed in metal hanging cages in groups of 3 or 4 per cage and had ad libitum access to food (calcium content approximately 0.5%) and water for one week. Room temperature was maintained at 22.2°±1.70° C. with a minimum relative humidity of 40%. The photoperiod in the room was 12 hours light and 12 hours dark.
(§2) After a one week acclimation period (therefore, two weeks post-OVX) daily dosing with test compound was initiated. […] Animals were dosed daily for 4 days. Following the dosing regimen, animals were weighed and anesthetized with a ketamine: Xylazine (2:1, V:V) mixture and a blood sample was collected by cardiac puncture. The animals were then sacrificed by asphyxiation with CO2, the uterus was removed through a midline incision, and a wet uterine weight was determined.
Uteri were kept at 4° C. until time of enzymatic analysis. The uteri were then homogenized in 50 volumes of 50 mM Tris buffer (pH-8.0) containing 0.005% Triton X-100. Upon addition of 0.01% hydrogen peroxide and 10 mM O-phenylenediamine (final concentrations) in Tris buffer, increase in absorbance was monitored for one minute at 450 nm. The presence of eosonophils in the uterus is an indication of estrogenic activity of a compound. The maximal velocity of a 15 second interval was determined over the initial, linear portion of the reaction curve.
As is expressed in the data below, estrogenicity also was assessed by evaluating the adverse response of eosinophil infiltration into the uterus.
(§3) The data presented in Table 1 below reflects the response of 5 to 6 rats per treatment.

[2] = system: Proximal Tibiae, ovariectomized rats; assay: Osteoporosis Test Procedure: proximal tibiae quantitative computed tomography; assay type: in vivo, rat; details: 35 days
Procedure: (§4) Following the General Preparation Procedure, infra, the rats were treated daily for 35 days (6 rats per treatment group) and sacrificed by carbon dioxide asphyxiation on the 36th day. The 35 day time period was sufficient to allow maximal reduction in bone density, measured as described herein. At the time of sacrifice, the uteri were removed, dissected free of extraneous tissue, and the fluid contents were expelled before determination of wet weight in order to confirm estrogen deficiency associated with complete ovariectomy. […] The uteri were then placed in 10% neutral buffered formalin to allow for subsequent histological analysis. The right femurs were excised and digitilized x-rays generated and analyzed by an image analysis program (NIH image) at the distal metaphysis. The proximal aspect of the tibiae from these animals were also scanned by quantitative computed tomography. […] Distal femur metaphysis and proximal tibiae data presented in Tables 2 and 3 below, respectively are the results of formula I compound treatments compared to intact and ovariectomized test animals. Results are reported as percent protection relative to ovariectomy.

[3] = system: MCF-7 breast adenocarcinoma cells; assay: MCF-7 Proliferation Assay (tritiated thymidine); assay type: cell-based; details: Homo sapiens, MCF7, 48 hours, read-out: IC50
Procedure: MCF-7 breast adenocarcinoma cells (ATCC HTB 22) were maintained in MEM (minimal essential medium, phenol red-free, Sigma, St. Louis, Mo.) supplimented with 10% fetal bovine serum (FBS) (V/V), L-glutamine (2 mM), sodium pyruvate (1 mM), HEPES {(N-[2-hydroxyethyl]piperazine-N'-[2-ethanesulfonic acid]10 mM}, non-essential amino acids and bovine insulin (1 ug/mL) (maintenance medium). Ten days prior to assay, MCF-7 cells were switched to maintenance medium supplemented with 10% dextran coated charcoal stripped fetal bovine serum (DCC-FBS) assay medium) in place of 10% FBS to deplete internal stores of steroids. MCF-7 cells were removed from maintenance flasks using cell dissociation medium (Ca++/Mg++ free HBSS (phenol red-free) supplemented with 10 mM HEPES and 2 mM EDTA). Cells were washed twice with assay medium and adjusted to 80,000 cells/mL. Approximately […] (8,000 cells) were added to flat-bottom microculture wells (Costar 3596) and incubated at 37° C. in a 5% CO2 humidified incubator for 48 hours to allow for cell adherence and equilibration after transfer. Serial dilutions of drugs or DMSO as a diluent control were prepared in assay medium and […] to triplicate microcultures followed by […] assay medium for a final volume of […]. After an additional 48 hours at 37° C. in a 5% CO2 humidified incubator, microcultures were pulsed with tritiated thymidine (1 uCi/well) for 4 hours. Cultures were terminated by freezing at -70° C. for 24 hours followed by thawing and harvesting of microcultures using a Skatron Semiautomatic Cell Harvester. Samples were counted by liquid scintillation using a Wallac BetaPlace b counter. Results in Table 4 below show the IC50 for certain compounds of the instant invention. […]

[4] = system: serum cholesterol, ovariectomized rats; assay: Serum cholesterol in ovariectomized rats (4 days daily oral dosing); assay type: in vivo, rat (female Sprague Dawley); details: for inhibition in vivo at 0.1 mg/kg: 0.1 mg/kg PO; for inhibition in vivo at 1 mg/kg: 1.0 mg/kg PO; for inhibition in vivo at 10 mg/kg: 10.0 mg/kg PO
Procedure: (§5) In the examples illustrating the methods, a postmenopausal model was used in which effects of different treatments upon circulating lipids were determined.
as §1, §2
Blood samples were allowed to clot at room temperature for 2 hours, and serum was obtained following centrifugation for 10 minutes at 3000 rpm. Serum cholesterol was determined using a Boehringer Mannheim Diagnostics high performance cholesterol assay. Briefly the cholesterol was oxidized to cholest-4-en-3-one and hydrogen peroxide. The hydrogen peroxide was then reacted with phenol and 4-aminophenazone in the presence of peroxidase to produce a p-quinone imine dye, which was read spectrophotemetrically at 500 nm. Cholesterol concentration was then calculated against a standard curve. The entire assay was automated using a Biomek Automated Workstation. […]
as §3

[5] = system: uterus, ovariectomized rats; assay: Uterine weight in ovariectomized rats (4 days daily oral dosing); assay type: in vivo, rat (female Sprague Dawley); details: for change in vivo at 0.1 mg/kg: 0.1 mg/kg PO; for change in vivo at 1 mg/kg: 1.0 mg/kg PO; for change in vivo at 10 mg/kg: 10.0 mg/kg PO
Procedure: as §5, §1, §2
This uterine response to estrogen is well recognized in the art.
as §3

[6] = system: Distal Femur Metaphysis, ovariectomized rats; assay: Osteoporosis Test Procedure: distal femur metaphysis X-ray image analysis; assay type: in vivo, rat; details: 35 days
Procedure: as §4

[7] = system: bone, ovariectomized rats; assay: Osteoporosis Test Procedure: bone loss in ovariectomized rats (summary); assay type: in vivo, rat; details: orally administered
Procedure: as §4

[8] = Rattus norvegicus, 96 h, read-out: Serum Cholesterol (% decrease vs. OVX)
[9] = Rattus norvegicus, 96 h, read-out: Uterine weight (% increase vs. OVX)
[10] = orally administered at 0.1 mg/kg/day

Structure (SMILES)	Uterine EPO (Vmax) ([1]; 0.1 mg/kg PO)	Uterine EPO (Vmax) ([1]; 1.0 mg/kg PO)	Uterine EPO (Vmax) ([1]; 10.0 mg/kg PO)	Proximal Tibiae Total Bone Mineral Density (Quantitative Computed Tomography), percent protection relative to ovariectomy ([2]; 0.1 mg/kg oral)	IC50 [3]	inhibition in vivo at 0.1 mg/kg [4, 8]	inhibition in vivo at 1 mg/kg [4, 8]	inhibition in vivo at 10 mg/kg [4, 8]	change in vivo at 0.1 mg/kg [5, 9]	change in vivo at 1 mg/kg [5, 9]	change in vivo at 10 mg/kg [5, 9]	also measured
O=C(c1ccc(OCCN2CCCCC2)cc1)c1c(-c2cccc(O)c2)sc2cc(O)ccc12 [Example 12, [2-(3-Hydroxyphenyl)-6-hydroxybenzo[b]thien-3-yl][4-[2-(1-piperidinyl)ethoxy]phenyl]methanone]	2.0	2.6	2.4	-30.9%	3.2 nM	24.3%	52.3%	49.1%	15.5%	22.7%	16.7%	Proximal Tibiae Total Bone Mineral Density (Quantitative Computed Tomography), percent protection relative to ovariectomy ([2]; 1.0 mg/kg oral): 51.5%; Proximal Tibiae Total Bone Mineral Density (Quantitative Computed Tomography), percent protection relative to ovariectomy ([2]; 10.0 mg/kg oral): 79.7%
O=C(c1ccc(OCCN2CCCCC2)cc1)c1c(-c2ccc(O)c(F)c2)sc2cc(O)ccc12 [Example 2, [2-(3-fluoro-4-hydroxyphenyl)-6-hydroxybenzo[b]thien-3-yl][4-[2-(1-piperidinyl)ethoxy]phenyl]methanone]	4.8	4.8	3.6		0.3 nM	48.1%	64.7%	47.8%	53.3%	53.7%	25.9%	Uterine EPO (Vmax) ([1]; 0.01 mg/kg PO): 4.8; inhibition in vivo at 0.01 mg/kg ([4]; Rattus norvegicus, 96 h, 0.01 mg/kg PO, read-out: Serum Cholesterol (% decrease vs. OVX)): 21.7%; change in vivo at 0.01 mg/kg ([5]; Rattus norvegicus, 96 h, 0.01 mg/kg PO, read-out: Uterine weight (% increase vs. OVX)): 3.2%; Distal Femur Metaphysis (X-ray Image Analysis-Gray Score), percent protection relative to ovariectomy ([6]; 0.01 mg/kg oral): 34.5%; Distal Femur Metaphysis (X-ray Image Analysis-Gray Score), percent protection relative to ovariectomy ([6]; 0.1 mg/kg oral): 34.1%; Distal Femur Metaphysis (X-ray Image Analysis-Gray Score), percent protection relative to ovariectomy ([6]; 1.0 mg/kg oral): 68.0%; Distal Femur Metaphysis (X-ray Image Analysis-Gray Score), percent protection relative to ovariectomy ([6]; 10.0 mg/kg oral): 70.0%
C#C[C@]1(O)CC[C@H]2[C@@H]3CCc4cc(O)ccc4[C@H]3CC[C@@]21C [EE2, 17a-ethynyl estradiol, reference compound]				59.4%								prevention of bone loss (in words) [7]: prevented this loss; serum cholesterol (in words) [4, 10]: caused a decrease in serum cholesterol; uterine weight (in words) [5, 10]: substantially greater than the uterine weight of ovariectomized test animals; Distal Femur Metaphysis (X-ray Image Analysis-Gray Score), percent protection relative to ovariectomy ([6]; oral, dose not given): 80.7%
COc1cc(O)ccc1-c1sc2cc(O)ccc2c1C(=O)c1ccc(OCCN2CCCCC2)cc1 [Example 18, [2-(4-Hydroxy-2-methoxyphenyl)-6-hydroxybenzo[b]thien-3-yl] [4-[2-(1-piperidinyl)ethoxy]phenyl]methanone]	34.2	81.9	135.9		2 nM	58.8%	79%	71.6%	64.1%	69.2%	73.3%	
O=C(c1ccc(OCCN2CCCCC2)cc1)c1c(-c2ccccc2O)sc2cc(O)ccc12 [Example 10, [2-(2-Hydroxyphenyl)-6-hydroxybenzo[b]thien-3-yl][4-[2-(1-piperidinyl)ethoxy]phenyl]methanone]	2.8	1.7	3.7		10 nM	7.8%	19.5%	33.2%	-18.3%	-21%	10.6%	
COc1ccc(-c2sc3cc(OC)ccc3c2C(=O)c2ccc(OCCN3CCCCC3)cc2)c(OC)c1 [Example 17, [2-(2,4-Dimethoxyphenyl)-6-methoxybenzo[b]thien-3-yl] [4-[2-(1-piperidinyl)ethoxy]phenyl]methanone]	20.4	102.0	20.1		300 nM	51.4%	68.5%	67.2%	40.1%	66.1%	53.7%	
